Test results: patent publication US20230172906A1, “METHOD TO TREAT VIRAL INFECTION INDUCED BY A CORONAVIRUS” (priority 2020, published 2023)

How the values were obtained:
RBD/ACE2 interaction = target: T1, RBD/ACE2 interaction (Homo sapiens, UniProt Q9BYF1); format: binding
T1 construct: expressed in transfected cells; host or cells: HEK293

[1] = tested on: SARS-CoV-2 pseudovirus entry into HEK293 cells expressing human ACE2; format: cell-based
HEK293 cells = conditions: melatonin at 10 and 100 μM, FIG. 1B

T1 sequence (Q9BYF1 18-805): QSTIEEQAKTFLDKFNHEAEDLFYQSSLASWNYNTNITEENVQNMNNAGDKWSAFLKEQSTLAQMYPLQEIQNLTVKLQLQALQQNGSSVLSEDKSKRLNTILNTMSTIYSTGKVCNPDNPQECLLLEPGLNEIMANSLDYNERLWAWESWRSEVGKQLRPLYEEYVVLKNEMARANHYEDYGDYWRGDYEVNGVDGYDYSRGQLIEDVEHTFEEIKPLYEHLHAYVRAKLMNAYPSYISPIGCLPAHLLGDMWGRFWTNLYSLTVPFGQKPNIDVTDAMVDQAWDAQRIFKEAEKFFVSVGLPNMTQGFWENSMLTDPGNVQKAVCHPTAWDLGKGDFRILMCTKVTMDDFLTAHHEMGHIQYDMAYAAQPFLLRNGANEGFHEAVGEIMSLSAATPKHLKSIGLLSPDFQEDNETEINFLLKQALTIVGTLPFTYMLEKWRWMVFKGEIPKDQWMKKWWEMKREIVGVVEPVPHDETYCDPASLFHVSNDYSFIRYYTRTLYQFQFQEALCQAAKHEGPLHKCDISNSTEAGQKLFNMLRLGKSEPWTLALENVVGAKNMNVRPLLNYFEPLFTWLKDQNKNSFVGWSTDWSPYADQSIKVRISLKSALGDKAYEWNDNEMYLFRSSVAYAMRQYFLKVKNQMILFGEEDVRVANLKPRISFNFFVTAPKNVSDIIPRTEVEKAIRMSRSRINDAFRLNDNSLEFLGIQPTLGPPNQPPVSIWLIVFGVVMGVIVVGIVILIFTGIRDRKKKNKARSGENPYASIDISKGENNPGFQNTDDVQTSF

With COc1ccc2[nH]cc(CCNC(C)=O)c2c1 [melatonin, Melatonin] the “binding of RBD-d2 of the SARS-CoV-2 Spike protein to Lumi4-Tb-labeled SNAP-tagged human ACE2” value (RBD/ACE2 interaction) was “inhibits”, the “infection by the SARS-CoV-2 pseudovirus” value [1] was “inhibited” and the cell viability (HEK293 cells) was “without affecting cell viability”.
